We go through one compound from patent US11905260B1, “N′-(1-naphthoyloxy)-2-(benzo[d]oxazol-2-yl)acetimidamide as an antimicrobial compound” (KING FAISAL UNIVERSITY, priority 2023, dated 2024).

The subject of one series is Bacillus cereus. The experiment in a line: agar plate disc-diffusion, antibacterial activity by inhibition zone. It is filed as cell-based. The conditions noted are these: nutrient agar, 37° C., 48 hours. Here is the method:
(§1) The agar plate disc-diffusion method was applied. […] The discs were then placed onto the surface of agar plates (nutrient agar for bacteria and Sabouraud's dextrose agar for fungi) seeded with the test organism. Each plate contained 15 mL of the agar medium, previously seeded with 0.2 mL of the broth culture of each organism pregrown for 18 hours. The plates were incubated at 37° C. for 48 hours, and 72 hours for fungi. The inhibition zones was measured in mm. Discs impregnated with DMSO were used as a control, and its inhibition zone was subtracted from the tested compound actual inhibition zone.

The next series deals with Escherichia coli. Described as above. It is filed as cell-based. The conditions noted are these: nutrient agar, 37° C., 48 hours. Here is the method:
as §1

The test system of the next series is Pseudomonas aeruginosa. The series is described as above. It is filed as cell-based. To be noted: nutrient agar, 37° C., 48 hours. As for the experimental part: as §1
The subject of another series is Staphylococcus aureus. The description is as above. It is filed as cell-based. To be noted: nutrient agar, 37° C., 48 hours. As for the experimental part:
as §1

A further series has as its system Aspergillus flavus. The experiment in a line: agar plate disc-diffusion, antifungal activity by inhibition zone. It is filed as cell-based. To be noted: Sabouraud's dextrose agar, 72 hours. As for the experimental part: as §1
The subject of series [1] is Chrysosporium keratinophilum. The description is as above. The series is classed as cell-based. To be noted: Sabouraud's dextrose agar, 72 hours. Here is the method: as §1
A further series relates to different microbes. Kind of series: antimicrobial activity, overall statement. The conditions noted are these: summary in words. It is filed as cell-based. As for the experimental part:
The agar plate disc-diffusion method was applied. Sterilized filter papers (6 mm in diameter) were wetted with 10 μL of a solution N′-(1-naphthoyloxy)-2-(benzo[d]oxazol-2-yl)acetimidamide (3) to be tested, containing 10 mg/mL in DMSO, and the discs were allowed to air dry. The discs were then placed onto the surface of agar plates (nutrient agar for bacteria and Sabouraud's dextrose agar for fungi) seeded with the test organism. Each plate contained 15 mL of the agar medium, previously seeded with 0.2 mL of the broth culture of each organism pregrown for 18 hours. The plates were incubated at 37° C. for 48 hours, and 72 hours for fungi. The inhibition zones was measured in mm. Discs impregnated with DMSO were used as a control, and its inhibition zone was subtracted from the tested compound actual inhibition zone.

Setting [2] is: A = concentration of comp. = 10,000 μL.
The mark [3] stands for this setting: B = concentration of comp. = 30,000 μL.
[4] abbreviates: C = concentration of comp. = 50,000 μL.

Consider `N/C(Cc1nc2ccccc2o1)=N\OC(=O)c1cccc2ccccc12` [compound 3, N′-(1-naphthoyloxy)-2-(benzo[d]oxazol-2-yl)acetimidamide], for which the melting point is 131 to 132 °C. Further, the “inhibition zone, Bacillus Cereus” value with Bacillus cereus (setting [2]) is listed as 23 mm. Moreover, the “inhibition zone, Bacillus Cereus” value with Bacillus cereus (setting [3]) was 27 mm. Moreover, in the series with Bacillus cereus (setting [4]), the “inhibition zone, Bacillus Cereus” value was found to be 36 mm. Besides, the “inhibition zone, Escherichia coli” value with Escherichia coli (setting [2]) amounted to 27 mm. Further, the “inhibition zone, Escherichia coli” value with Escherichia coli (setting [3]) is 34 mm. Further, the “inhibition zone, Escherichia coli” value with Escherichia coli (setting [4]) is 51 mm. In the series on Pseudomonas aeruginosa (setting [2]), the “inhibition zone, Pseudomonas aeruginosa” value is 22 mm. The “inhibition zone, Pseudomonas aeruginosa” value in the series with Pseudomonas aeruginosa (setting [3]) is 24 mm. For the same compound, in the series on Pseudomonas aeruginosa (setting [4]), the “inhibition zone, Pseudomonas aeruginosa” value turned out to be 38 mm. The “inhibition zone, Staphylococcus aureus” value in the series on Staphylococcus aureus (setting [2]) is on record as 26 mm. For the same compound, in the series on Staphylococcus aureus (setting [3]), the “inhibition zone, Staphylococcus aureus” value is given as 30 mm. The “inhibition zone, Staphylococcus aureus” value in the series on Staphylococcus aureus (setting [4]) is 38 mm. The “inhibition zone, Aspergillus flavus” value with Aspergillus flavus (setting [2]) is reported as 24 mm. Also, in the series with Aspergillus flavus (setting [3]), the “inhibition zone, Aspergillus flavus” value was 26 mm. In the series with Aspergillus flavus (C =), the “inhibition zone, Aspergillus flavus” value was found to be 37 mm. In series [1] (setting [2]), the “inhibition zone, Chrysosporium keratinophilum” value is on record as 27 mm. Moreover, in series [1] (setting [3]), the “inhibition zone, Chrysosporium keratinophilum” value was determined as 30 mm. For the same compound, the “inhibition zone, Chrysosporium keratinophilum” value in series [1] (setting [4]) was determined as 51 mm. In addition, in the series with different microbes, the “antimicrobial activities against different microbes” value is on record as “excellent antimicrobial activities”.
